Test results taken from patent US20250313535A1, “ALPHA 4 BETA 7 INTEGRIN MODULATORS AND USES THEREOF” (DICE MOLECULES SV, INC., priority 2022, published 2025).
Read-outs that look alike come from different tables or passages of the source.

Tests used:
[1] = biological target: α4β1 integrin (Homo sapiens (Human), UniProt P05556+P13612); assay: Integrin Adhesion Assay: Protocol 5 (VCAM-coated plate, RPMI-8866 cells with stable LOF mutation of the ITGB7 gene); assay type: cell-based
Outline: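 RPMI-8866 B cells with CRISPR/Cas9 ITGB7 knockout (clonal, verified by flow cytometry) adhered to VCAM-coated wells for 1 h at 37° C in HEPES/NaCl buffer with 1 mM MnCl2, 0.1 mM CaCl2, 1% BSA, 1% DMSO. Bound cells quantified by CellTiter-Glo luminescence after washing; % inhibition versus DMSO and control, 4-parameter fit.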

[2] = biological target: α4β7 integrin (Homo sapiens (Human), UniProt P13612+P26010); assay: Integrin Adhesion Assay: Protocol 4 (MAdCAM-coated plate, RPMI-8866 cells with stable LOF mutation of the ITGB1 gene); assay type: cell-based
Outline: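 RPMI-8866 cells with CRISPR/Cas9 knockout of ITGB1 (2×10^6/mL) were added to MAdCAM-coated wells with compound (1% DMSO) in HEPES/NaCl buffer with 1 mM MnCl2, 0.1 mM CaCl2 and 1% BSA, then incubated 1 h at 37 °C. After four washes, adherent cells were quantified by CellTiter-Glo luminescence. Percent inhibition versus DMSO and control compound was fitted to 4-parameter curves.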

[3] = Protocol 5, RPMI-8866 cells with LOF mutation of ITGB7, VCAM, read-out: Mean IC50 α4β1 KO
[4] = Protocol 4, RPMI-8866 cells with LOF mutation of ITGB1, MAdCAM, read-out: Mean IC50 α4β7 KO
[5] = RPMI-8866 cells with stable LOF mutation of the ITGB7 gene, read-out: Mean IC50 α4β1 KO^b
[6] = RPMI-8866 cells with stable LOF mutation of the ITGB1 gene, read-out: Mean IC50 α4β7 KO^a

Chain of α4β1 integrin (P13612 34-1032): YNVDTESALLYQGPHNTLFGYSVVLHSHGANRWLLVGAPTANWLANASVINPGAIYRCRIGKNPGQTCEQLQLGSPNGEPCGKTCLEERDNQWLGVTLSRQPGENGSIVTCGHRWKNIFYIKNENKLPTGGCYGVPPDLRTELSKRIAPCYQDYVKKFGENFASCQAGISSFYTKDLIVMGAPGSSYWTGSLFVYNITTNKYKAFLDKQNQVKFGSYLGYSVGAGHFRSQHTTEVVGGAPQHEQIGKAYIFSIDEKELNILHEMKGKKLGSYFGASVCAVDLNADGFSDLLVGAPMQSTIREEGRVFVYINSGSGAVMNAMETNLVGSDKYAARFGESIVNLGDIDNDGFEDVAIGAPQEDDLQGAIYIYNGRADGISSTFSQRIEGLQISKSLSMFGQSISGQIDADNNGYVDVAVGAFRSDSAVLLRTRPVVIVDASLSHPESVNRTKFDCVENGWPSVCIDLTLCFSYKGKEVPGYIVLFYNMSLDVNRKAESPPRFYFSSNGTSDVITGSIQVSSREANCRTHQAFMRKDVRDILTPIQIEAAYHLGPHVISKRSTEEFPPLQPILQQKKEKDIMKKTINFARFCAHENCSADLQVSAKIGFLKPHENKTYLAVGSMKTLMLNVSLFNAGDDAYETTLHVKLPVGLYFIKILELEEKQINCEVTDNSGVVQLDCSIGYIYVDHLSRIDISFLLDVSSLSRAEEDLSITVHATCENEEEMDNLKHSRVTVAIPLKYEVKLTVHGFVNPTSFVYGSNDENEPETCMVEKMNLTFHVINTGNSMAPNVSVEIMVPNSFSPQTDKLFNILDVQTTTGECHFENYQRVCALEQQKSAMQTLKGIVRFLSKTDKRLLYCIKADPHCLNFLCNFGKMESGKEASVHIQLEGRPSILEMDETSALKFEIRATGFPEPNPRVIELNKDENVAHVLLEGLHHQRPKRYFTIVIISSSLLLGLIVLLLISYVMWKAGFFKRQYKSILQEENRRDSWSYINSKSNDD
Chain of α4β1 integrin (P05556 21-798): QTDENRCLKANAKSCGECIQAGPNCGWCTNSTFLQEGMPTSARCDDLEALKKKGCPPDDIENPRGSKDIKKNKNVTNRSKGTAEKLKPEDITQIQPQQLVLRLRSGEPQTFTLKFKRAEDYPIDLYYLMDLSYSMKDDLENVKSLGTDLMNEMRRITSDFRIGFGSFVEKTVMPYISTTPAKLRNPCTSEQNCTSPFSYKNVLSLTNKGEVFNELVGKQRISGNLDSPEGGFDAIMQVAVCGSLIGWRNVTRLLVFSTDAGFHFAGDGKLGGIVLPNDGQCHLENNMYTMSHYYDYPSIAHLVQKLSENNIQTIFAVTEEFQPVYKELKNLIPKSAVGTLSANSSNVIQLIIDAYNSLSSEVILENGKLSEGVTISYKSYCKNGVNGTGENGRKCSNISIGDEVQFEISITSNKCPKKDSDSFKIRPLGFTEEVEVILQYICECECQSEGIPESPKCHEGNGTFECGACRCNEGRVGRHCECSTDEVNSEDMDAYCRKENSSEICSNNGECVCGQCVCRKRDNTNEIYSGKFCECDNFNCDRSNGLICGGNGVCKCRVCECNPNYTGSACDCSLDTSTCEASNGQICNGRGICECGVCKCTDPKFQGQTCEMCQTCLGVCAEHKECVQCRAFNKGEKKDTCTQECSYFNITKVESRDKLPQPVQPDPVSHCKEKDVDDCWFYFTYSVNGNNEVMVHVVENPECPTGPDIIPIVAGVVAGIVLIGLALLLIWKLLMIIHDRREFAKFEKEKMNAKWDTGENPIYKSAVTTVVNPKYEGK
Chain of α4β7 integrin (P13612 34-1032): as the sequence (P13612 34-1032) above
Chain of α4β7 integrin (P26010 20-798): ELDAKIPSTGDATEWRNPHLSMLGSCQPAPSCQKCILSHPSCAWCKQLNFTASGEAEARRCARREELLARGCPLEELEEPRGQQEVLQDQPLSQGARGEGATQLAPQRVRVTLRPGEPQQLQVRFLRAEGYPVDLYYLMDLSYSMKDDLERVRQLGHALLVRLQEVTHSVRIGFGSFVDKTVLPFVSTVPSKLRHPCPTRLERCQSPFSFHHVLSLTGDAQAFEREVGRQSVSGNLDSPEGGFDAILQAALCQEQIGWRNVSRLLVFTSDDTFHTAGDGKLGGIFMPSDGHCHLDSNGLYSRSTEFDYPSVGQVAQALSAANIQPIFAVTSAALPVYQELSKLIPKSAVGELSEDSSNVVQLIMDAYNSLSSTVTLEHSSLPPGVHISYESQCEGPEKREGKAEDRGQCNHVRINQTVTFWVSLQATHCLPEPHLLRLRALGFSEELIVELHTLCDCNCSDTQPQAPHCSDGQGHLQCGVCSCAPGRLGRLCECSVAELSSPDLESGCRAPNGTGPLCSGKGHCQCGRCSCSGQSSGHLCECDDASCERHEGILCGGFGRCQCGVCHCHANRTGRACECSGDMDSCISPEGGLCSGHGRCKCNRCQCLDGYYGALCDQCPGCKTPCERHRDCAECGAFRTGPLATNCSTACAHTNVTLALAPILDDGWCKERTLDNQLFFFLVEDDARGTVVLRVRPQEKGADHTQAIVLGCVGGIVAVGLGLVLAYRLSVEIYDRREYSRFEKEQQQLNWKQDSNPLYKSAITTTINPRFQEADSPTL

Structure (SMILES) | IC50 [1, 3] [nM] | IC50 [2, 4] [nM] | IC50 [1, 5] [nM] | IC50 [2, 6] [nM]
Cc1cc(CN2CCCCC2)cnc1-c1cccc2c(C[C@H](NC(=O)C3(C(F)(F)F)CCN(CC(F)(F)F)CC3)C(=O)O)cccc12 [Compound 880] | > 1000 | < 10 | – | –
COc1ccc(CN2CCCC(F)C2)c(C(F)(F)F)c1-c1cccc2c(C[C@H](NC(=O)c3c(C)cccc3F)C(=O)O)cccc12 (stereo partly drawn) [Compound 572] | – | – | > 1000 | 10 to 100
Cn1c(=O)c(-c2cccc3c(C[C@H](NC(=O)C4(C(F)(F)F)CCN(C5COCC5(F)F)CC4)C(=O)O)cccc23)c(C(F)(F)F)c2ccccc21 (stereo partly drawn) [Compound 512] | – | – | 100 to 1000 | < 10
COc1cc(CN2CCCCC2)cc(C(F)(F)F)c1-c1cccc2c(C[C@H](NC(=O)c3c(C)cccc3F)C(=O)O)cccc12 [Compound 1023] | 100 to 1000 | < 10 | – | –
O=C(O)[C@H](Cc1cccc2c(-c3cc(CN4CCCC4)cc4ccncc34)cccc12)NC(=O)C1(C(F)(F)F)CCN(C2COC2)CC1 [Compound 620] | – | – | > 1000 | < 10
Cn1c(=O)c(-c2cccc3c(C[C@H](NC(=O)C4(C(F)(F)F)CCN(C(c5ccccc5)C(F)(F)F)CC4)C(=O)O)cccc23)c(C(F)(F)F)c2ccccc21 (stereo partly drawn) [Compound 516] | – | – | > 1000 | > 1000
CC[C@@H](N1CCC(C(=O)N[C@@H](Cc2cccc3c(-c4c(C(F)(F)F)c5ccccc5n(C)c4=O)cccc23)C(=O)O)(C(F)(F)F)CC1)C(F)(F)F [Compound 484] | – | – | > 1000 | 100 to 1000
COc1cccc(CN2CCCCC2)c1-c1cccc2c(C[C@H](NC(=O)c3c(F)cccc3C(F)(F)F)C(=O)O)cccc12 [Compound 542] | – | – | 100 to 1000 | < 10
Cn1c(=O)c(-c2cccc3c(C[C@H](NC(=O)c4c(F)cccc4F)C(=O)O)cccc23)c(C(F)(F)F)c2cc(C3CCCO3)ccc21 (stereo partly drawn) [Compound 1046] | > 1000 | 100 to 1000 | – | –
O=C(O)[C@H](Cc1cccc2c(-c3cc(CN4CCC(F)(F)C4)cc4ccncc34)cccc12)NC(=O)C1(C(F)(F)F)CCN(C2COC2)CC1 [Compound 598] | – | – | > 1000 | 10 to 100
CCOCc1cc(OC)c(-c2cccc3c(C[C@H](NC(=O)C4(C(F)(F)F)CCN(CC(F)(F)F)CC4)C(=O)O)cccc23)cc1CN1CCCCC1 [Compound 768] | 100 to 1000 | < 10 | – | –
COc1cccc(CCN2CCC(C)C(F)(F)CC2)c1-c1cccc2c(C[C@H](NC(=O)C3(C(F)(F)F)CCN(CC(F)(F)F)CC3)C(=O)O)cccc12 (stereo partly drawn) [Compound 972] | 100 to 1000 | < 10 | – | –
O=C(O)[C@H](Cc1cccc2c(-c3nccc4ccc(CCCN5CCC6(CC5)CC6)cc34)cccc12)NC(=O)C1(C(F)(F)F)CCN(C2COC2)CC1 [Compound 773] | 100 to 1000 | < 10 | – | –
COc1ccc(C2(N(C)C)CC2)c(OC)c1-c1cccc2c(C[C@H](NC(=O)c3c(C)cccc3F)C(=O)O)cccc12 [Compound 1045] | 100 to 1000 | < 10 | – | –
CC[C@H]1CCCN1Cc1cnc(-c2cccc3c(C[C@H](NC(=O)C4(C(F)(F)F)CCN(CC(F)F)CC4)C(=O)O)cccc23)c2ccccc12 [Compound 934] | 100 to 1000 | < 10 | – | –
O=C(O)[C@H](Cc1cccc2c(-c3ncc(CN4CCCC4)c4ccccc34)cccc12)NC(=O)C1(C(F)(F)F)CCN(CC(F)F)CC1 [Compound 917] | 100 to 1000 | < 10 | – | –
COc1cc(CN2CCCCC2)cnc1-c1cccc2c(C[C@H](NC(=O)c3c(C)cccc3F)C(=O)O)cccc12 [Compound 1018] | > 1000 | < 10 | – | –
O=C(O)[C@H](Cc1cccc2c(-c3ncc(CN4CCCCC4)c4ccccc34)cccc12)NC(=O)C1(C(F)(F)F)CCN(CC(F)F)CC1 [Compound 888] | > 1000 | < 10 | – | –
CN(C)Cc1ccc2c(C(F)(F)F)c(-c3cccc4c(C[C@H](NC(=O)C5(C(F)(F)F)CCN(CC(F)(F)F)CC5)C(=O)O)cccc34)c(=O)n(C)c2c1 [Compound 476] | – | – | 100 to 1000 | < 10
CCCN1CCC(C(=O)N[C@@H](Cc2cccc3c(-c4c(C(F)(F)F)c5ccccc5n(C)c4=O)cccc23)C(=O)O)(C(F)(F)F)CC1 [Compound 535] | – | – | > 1000 | 10 to 100

Structure (SMILES) | IC50 [1, 3] [nM] | IC50 [2, 4] [nM] | IC50 [1, 5] [nM] | IC50 [2, 6] [nM]
COc1ccc(CN(C)CC(F)F)c(OC)c1-c1cccc2c(C[C@H](NC(=O)c3c(C)cccc3F)C(=O)O)cccc12 [Compound 637] | – | – | 100 to 1000 | < 10
COc1ccc2c(c1-c1cccc3c(C[C@H](NC(=O)c4c(C)cccc4F)C(=O)O)cccc13)CCN(CC(F)F)C2 [Compound 1003] | > 1000 | 10 to 100 | – | –
O=C(O)[C@H](Cc1cccc2c(-c3ncc(CN4CCC(C(F)(F)F)CC4)c4ccccc34)cccc12)NC(=O)C1(C(F)(F)F)CCN(C2COC2)CC1 [Compound 580] | – | – | > 1000 | < 10
COc1cc(CN2CCCC2)cc(OC)c1-c1cccc2c(C[C@H](NC(=O)C3(C(F)(F)F)CCN(CC(F)(F)F)CC3)C(=O)O)cccc12 [Compound 796] | 100 to 1000 | < 10 | – | –
Cn1c(=O)c(-c2cccc3c(C[C@H](NC(=O)C4(C(F)(F)F)CCN(CC(F)(F)F)CC4)C(=O)O)cccc23)c(C(F)(F)F)c2ccc(CN3CCC(F)(F)CC3)cc21 [Compound 846] | > 1000 | 10 to 100 | – | –
COc1cccc(CN2CCCCC2)c1-c1cccc2c(C[C@H](NC(=O)C3(C(F)(F)F)CCN(CC(F)(F)F)CC3)C(=O)O)cccc12 [Compound 566] | – | – | > 1000 | < 10
O=C(O)[C@H](Cc1cccc2c(-c3ncc(CCCN4CCCCC4)c4ccccc34)cccc12)NC(=O)C1(C(F)(F)F)CCN(CC(F)(F)F)CC1 [Compound 730] | > 1000 | < 10 | – | –
COc1cc(CN2CCCCC2)cnc1-c1cccc2c(C[C@H](NC(=O)C3(C(F)(F)F)CCN(CC(F)(F)F)CC3)C(=O)O)cccc12 [Compound 800] | > 1000 | < 10 | – | –
COc1ccc(CN2CC[C@H](F)C2)cc1-c1cccc2c(C[C@H](NC(=O)C3(C(F)(F)F)CCN(CC(F)F)CC3)C(=O)O)cccc12 [Compound 943] | 10 to 100 | < 10 | – | –
Cn1c(=O)c(-c2cccc3c(C[C@H](NC(=O)c4c(F)cccc4F)C(=O)O)cccc23)c(C(F)(F)F)c2cc(CCN3CCC3)ccc21 [Compound 709] | > 1000 | < 10 | – | –
COc1cccc(F)c1C(=O)N[C@@H](Cc1cccc2c(-c3c(CN4CCCCC4)cccc3OC)cccc12)C(=O)O [Compound 675] | – | – | 100 to 1000 | < 10
CC1CCN(Cc2ccc3c(c2)c(C(F)(F)F)c(-c2cccc4c(C[C@H](NC(=O)C5(C(F)(F)F)CCN(CC(F)(F)F)CC5)C(=O)O)cccc24)c(=O)n3C)CCC1(F)F (stereo partly drawn) [Compound 839] | 100 to 1000 | 10 to 100 | – | –
COc1ccc(CN2CCC(F)(F)CC2)c(OC)c1-c1cccc2c(C[C@H](NC(=O)c3c(C)cc(NCC(F)(F)F)cc3F)C(=O)O)cccc12 [Compound 608] | – | – | > 1000 | 10 to 100
O=C(O)[C@H](Cc1cccc2c(-c3ccc(CN4CCCCC4)c4ccncc34)cccc12)NC(=O)C1(C(F)(F)F)CCN(CC(F)(F)F)CC1 [Compound 555] | – | – | > 1000 | < 10
COc1ccc2ccccc2c1-c1cccc2c(C[C@H](NC(=O)C3(C(F)(F)F)CCN(CC(F)(F)F)CC3)C(=O)O)cccc12 [Compound 765] | > 1000 | 10 to 100 | – | –
COc1cnc(CN2CCC3(CCCCC3)CC2)c(OC)c1-c1cccc2c(C[C@H](NC(=O)c3c(C)cccc3F)C(=O)O)cccc12 [Compound 1039] | > 1000 | < 10 | – | –
O=C(O)[C@H](Cc1cccc2c(-c3nccc4ccc(CCCN5CCCCC5)cc34)cccc12)NC(=O)C1(C(F)(F)F)CCN([C@@H]2COCC2(F)F)CC1 [Compound 483] | – | – | > 1000 | < 10
CC1(C)CCCN(Cc2cnc(-c3cccc4c(C[C@H](NC(=O)C5(C(F)(F)F)CCN(CC(F)F)CC5)C(=O)O)cccc34)c3ccccc23)CC1 [Compound 916] | 100 to 1000 | < 10 | – | –
O=C(O)[C@H](Cc1cccc2c(-c3ncc(CN4CC5(CC5)C4)c4ccccc34)cccc12)NC(=O)C1(C(F)(F)F)CCN(CC(F)F)CC1 [Compound 908] | 100 to 1000 | < 10 | – | –
